PMC7827406, “Structure–Activity Relationship (SAR) Study of Spautin-1 to Entail the Discovery of Novel NEK4 Inhibitors” (International Journal of Molecular Sciences, 2021)
Where two headings read alike, the source gives them in different places.

How the values were obtained:
Assay in all cases: biochemical
Set-up in all cases: Eurofins KinaseProfiler full panel at Km ATP, residual kinase activity (%) relative to DMSO
[1] = target: T1, Ros(h) (Homo sapiens, UniProt P08922)
T1 construct: gene ROS1
Outline: (§1)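 Two 10 µM single-concentration screens were run: a competition-binding screen, in which DNA-tagged kinase bound to immobilized ligands was quantified by qPCR, and a radiometric activity panel at Km ATP. Each is expressed as residual kinase activity (%).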

[2] = target: T2, MST2(h) (Homo sapiens, UniProt Q13188)
T2 construct: gene STK3
T2 sequence (Q13188 1-491): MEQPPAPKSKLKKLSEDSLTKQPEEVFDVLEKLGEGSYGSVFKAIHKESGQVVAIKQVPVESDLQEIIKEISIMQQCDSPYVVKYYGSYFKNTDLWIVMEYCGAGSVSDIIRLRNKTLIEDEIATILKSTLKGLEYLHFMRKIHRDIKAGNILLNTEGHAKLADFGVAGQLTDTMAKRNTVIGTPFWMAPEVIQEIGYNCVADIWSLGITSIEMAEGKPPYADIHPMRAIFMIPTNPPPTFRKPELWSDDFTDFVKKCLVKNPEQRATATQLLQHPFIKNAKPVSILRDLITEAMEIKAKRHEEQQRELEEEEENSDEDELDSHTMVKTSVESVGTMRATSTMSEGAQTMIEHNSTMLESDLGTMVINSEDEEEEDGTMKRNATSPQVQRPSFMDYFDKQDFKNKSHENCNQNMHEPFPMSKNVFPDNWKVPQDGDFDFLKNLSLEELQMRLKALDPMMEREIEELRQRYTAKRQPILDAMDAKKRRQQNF
Outline: as §1

[3] = target: T3, Ron(h) (Homo sapiens, UniProt Q04912)
T3 construct: gene MST1R
Outline: as §1

[4] = target: TGFBR2(h) (Homo sapiens, UniProt P37173)
Outline: as §1

[5] = target: T4, EphB4(h) (Homo sapiens, UniProt P54760)
T4 sequence (P54760 1-987): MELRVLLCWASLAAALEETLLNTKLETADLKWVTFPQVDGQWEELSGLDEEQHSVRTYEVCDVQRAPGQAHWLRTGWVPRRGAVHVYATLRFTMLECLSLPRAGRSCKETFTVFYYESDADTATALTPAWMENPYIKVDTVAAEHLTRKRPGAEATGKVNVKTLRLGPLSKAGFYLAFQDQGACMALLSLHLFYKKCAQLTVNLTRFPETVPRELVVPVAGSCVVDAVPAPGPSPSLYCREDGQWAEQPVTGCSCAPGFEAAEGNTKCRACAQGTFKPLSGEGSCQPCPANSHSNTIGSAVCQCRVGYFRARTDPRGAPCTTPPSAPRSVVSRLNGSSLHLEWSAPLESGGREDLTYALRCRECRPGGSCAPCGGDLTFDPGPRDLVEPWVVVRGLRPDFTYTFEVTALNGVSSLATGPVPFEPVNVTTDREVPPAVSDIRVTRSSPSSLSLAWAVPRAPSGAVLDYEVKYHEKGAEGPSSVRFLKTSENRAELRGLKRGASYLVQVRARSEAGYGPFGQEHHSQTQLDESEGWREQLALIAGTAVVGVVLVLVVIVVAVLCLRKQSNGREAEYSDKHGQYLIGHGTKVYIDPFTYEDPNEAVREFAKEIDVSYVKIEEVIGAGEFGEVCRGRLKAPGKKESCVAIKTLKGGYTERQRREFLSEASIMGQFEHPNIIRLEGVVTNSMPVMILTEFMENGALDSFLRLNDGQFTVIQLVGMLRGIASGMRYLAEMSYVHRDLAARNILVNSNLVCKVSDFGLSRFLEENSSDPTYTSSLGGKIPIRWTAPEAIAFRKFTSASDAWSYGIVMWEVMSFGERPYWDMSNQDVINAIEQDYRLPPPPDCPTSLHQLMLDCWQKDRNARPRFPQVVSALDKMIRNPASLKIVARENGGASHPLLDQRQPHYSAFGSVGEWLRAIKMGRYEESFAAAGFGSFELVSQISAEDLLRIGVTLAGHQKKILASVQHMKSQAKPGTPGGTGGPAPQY
Outline: as §1

[6] = target: T5, CDK5/p25(h) (Homo sapiens, UniProt Q00535)
T5 construct: p25
Outline: as §1

[7] = target: DYRK1B(h) (Homo sapiens, UniProt Q9Y463)
Outline: as §1

[8] = target: T6, Rsk3(h) (Homo sapiens, UniProt Q15349)
T6 construct: gene RPS6KA2
Outline: as §1

[9] = target: T7, JNK2α2(h) (Homo sapiens, UniProt P45984)
T7 construct: gene MAPK9; isoform alpha2
Outline: as §1

[10] = target: T8, IRR(h) (Homo sapiens, UniProt P14616)
T8 construct: gene INSRR
Outline: as §1

[11] = read-out: Residual activity (%) Spautin-1 5aa
[12] = read-out: Residual activity (%) 5as
[13] = read-out: Residual activity (%) 5at
[14] = read-out: Residual activity (%) 5ay

T6 sequence (Q15349 whole entry): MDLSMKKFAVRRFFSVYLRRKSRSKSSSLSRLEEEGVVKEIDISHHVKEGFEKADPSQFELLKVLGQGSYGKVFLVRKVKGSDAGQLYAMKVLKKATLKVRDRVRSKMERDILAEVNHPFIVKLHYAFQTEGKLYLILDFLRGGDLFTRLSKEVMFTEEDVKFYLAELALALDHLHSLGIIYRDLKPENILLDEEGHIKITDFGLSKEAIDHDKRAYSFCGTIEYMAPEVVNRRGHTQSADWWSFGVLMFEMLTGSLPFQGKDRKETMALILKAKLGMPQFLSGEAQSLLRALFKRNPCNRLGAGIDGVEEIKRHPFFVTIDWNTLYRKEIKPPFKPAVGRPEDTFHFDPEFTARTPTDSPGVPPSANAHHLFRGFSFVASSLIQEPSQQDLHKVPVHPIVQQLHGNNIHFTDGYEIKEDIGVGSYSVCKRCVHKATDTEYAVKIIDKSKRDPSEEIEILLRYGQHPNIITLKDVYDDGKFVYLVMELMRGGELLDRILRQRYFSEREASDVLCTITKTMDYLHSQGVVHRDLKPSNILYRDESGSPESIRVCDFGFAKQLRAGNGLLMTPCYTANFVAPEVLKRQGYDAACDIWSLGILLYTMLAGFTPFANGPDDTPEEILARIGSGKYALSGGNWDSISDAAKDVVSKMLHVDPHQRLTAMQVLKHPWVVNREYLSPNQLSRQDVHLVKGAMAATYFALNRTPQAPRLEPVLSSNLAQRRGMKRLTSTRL
T1 sequence (P08922 whole entry): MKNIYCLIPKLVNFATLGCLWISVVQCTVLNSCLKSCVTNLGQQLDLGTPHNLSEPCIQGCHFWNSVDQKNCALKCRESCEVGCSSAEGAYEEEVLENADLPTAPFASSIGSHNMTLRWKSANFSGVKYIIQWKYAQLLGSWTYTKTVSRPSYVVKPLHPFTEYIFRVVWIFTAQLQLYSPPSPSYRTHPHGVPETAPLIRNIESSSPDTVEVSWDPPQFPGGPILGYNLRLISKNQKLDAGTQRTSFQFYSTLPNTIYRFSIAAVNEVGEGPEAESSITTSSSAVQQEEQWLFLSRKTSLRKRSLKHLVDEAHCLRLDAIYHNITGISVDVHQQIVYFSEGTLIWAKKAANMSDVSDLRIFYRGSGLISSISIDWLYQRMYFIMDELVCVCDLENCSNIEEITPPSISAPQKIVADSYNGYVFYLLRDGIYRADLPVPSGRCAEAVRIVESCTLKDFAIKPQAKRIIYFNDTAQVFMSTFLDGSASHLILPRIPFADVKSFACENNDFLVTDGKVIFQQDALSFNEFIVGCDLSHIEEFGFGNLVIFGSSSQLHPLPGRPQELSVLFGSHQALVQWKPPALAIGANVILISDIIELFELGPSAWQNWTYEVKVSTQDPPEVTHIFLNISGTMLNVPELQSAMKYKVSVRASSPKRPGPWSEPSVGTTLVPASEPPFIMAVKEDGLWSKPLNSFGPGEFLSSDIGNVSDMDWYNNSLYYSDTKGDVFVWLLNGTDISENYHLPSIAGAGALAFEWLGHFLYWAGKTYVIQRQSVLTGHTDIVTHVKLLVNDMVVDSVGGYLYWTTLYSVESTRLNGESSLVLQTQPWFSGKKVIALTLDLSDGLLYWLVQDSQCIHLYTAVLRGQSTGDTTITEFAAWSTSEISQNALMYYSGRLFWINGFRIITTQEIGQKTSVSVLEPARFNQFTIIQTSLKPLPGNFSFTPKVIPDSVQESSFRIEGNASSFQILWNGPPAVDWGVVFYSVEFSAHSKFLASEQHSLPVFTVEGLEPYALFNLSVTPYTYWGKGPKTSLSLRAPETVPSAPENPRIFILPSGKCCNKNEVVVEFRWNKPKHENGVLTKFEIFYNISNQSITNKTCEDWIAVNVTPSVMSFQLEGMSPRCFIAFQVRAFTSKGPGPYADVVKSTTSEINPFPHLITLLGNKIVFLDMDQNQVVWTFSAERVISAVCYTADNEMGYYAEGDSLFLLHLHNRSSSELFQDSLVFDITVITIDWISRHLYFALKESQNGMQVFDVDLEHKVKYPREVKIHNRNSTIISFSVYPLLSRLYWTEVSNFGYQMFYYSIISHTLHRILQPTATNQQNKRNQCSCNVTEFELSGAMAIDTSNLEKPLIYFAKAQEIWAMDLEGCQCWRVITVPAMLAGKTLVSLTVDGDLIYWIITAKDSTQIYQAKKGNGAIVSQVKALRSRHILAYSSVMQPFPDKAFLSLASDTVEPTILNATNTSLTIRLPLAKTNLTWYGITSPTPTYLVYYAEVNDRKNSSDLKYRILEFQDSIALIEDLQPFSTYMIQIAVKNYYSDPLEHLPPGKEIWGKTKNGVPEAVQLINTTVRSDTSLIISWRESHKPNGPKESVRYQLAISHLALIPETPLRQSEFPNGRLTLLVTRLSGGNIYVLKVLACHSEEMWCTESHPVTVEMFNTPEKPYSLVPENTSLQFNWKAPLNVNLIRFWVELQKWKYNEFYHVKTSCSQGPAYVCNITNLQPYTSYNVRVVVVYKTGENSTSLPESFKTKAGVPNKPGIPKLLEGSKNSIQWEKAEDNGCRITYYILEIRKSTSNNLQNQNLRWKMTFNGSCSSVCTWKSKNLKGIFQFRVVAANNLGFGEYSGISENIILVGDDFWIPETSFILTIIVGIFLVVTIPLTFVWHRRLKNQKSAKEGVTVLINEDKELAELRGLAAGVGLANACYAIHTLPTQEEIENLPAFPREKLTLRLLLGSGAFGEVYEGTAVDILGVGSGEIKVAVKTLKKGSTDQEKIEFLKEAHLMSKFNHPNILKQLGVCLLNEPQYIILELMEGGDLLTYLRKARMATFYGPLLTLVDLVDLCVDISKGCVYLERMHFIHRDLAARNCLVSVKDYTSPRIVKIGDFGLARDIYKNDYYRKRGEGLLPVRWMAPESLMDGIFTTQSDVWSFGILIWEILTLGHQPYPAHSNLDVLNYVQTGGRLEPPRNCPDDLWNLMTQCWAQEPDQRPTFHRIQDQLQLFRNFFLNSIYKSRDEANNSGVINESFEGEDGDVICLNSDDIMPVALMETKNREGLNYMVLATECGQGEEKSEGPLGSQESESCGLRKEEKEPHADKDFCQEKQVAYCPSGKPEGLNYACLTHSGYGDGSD
TGFBR2(h), sequence (P37173 whole entry): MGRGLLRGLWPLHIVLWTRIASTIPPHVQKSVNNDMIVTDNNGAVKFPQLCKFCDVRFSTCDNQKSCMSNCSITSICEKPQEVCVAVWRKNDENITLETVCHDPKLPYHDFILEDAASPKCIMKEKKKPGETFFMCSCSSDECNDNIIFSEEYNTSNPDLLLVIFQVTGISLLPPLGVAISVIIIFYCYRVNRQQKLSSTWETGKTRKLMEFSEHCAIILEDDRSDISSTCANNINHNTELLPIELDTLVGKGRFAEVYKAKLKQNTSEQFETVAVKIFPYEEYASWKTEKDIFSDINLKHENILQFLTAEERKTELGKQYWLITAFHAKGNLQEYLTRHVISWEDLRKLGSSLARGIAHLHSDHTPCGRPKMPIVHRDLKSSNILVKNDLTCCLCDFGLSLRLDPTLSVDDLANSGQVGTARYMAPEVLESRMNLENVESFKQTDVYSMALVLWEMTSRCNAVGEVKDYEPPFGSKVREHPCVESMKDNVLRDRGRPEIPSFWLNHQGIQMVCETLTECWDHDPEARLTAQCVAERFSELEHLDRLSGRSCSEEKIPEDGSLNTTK
T5 sequence (Q00535 whole entry): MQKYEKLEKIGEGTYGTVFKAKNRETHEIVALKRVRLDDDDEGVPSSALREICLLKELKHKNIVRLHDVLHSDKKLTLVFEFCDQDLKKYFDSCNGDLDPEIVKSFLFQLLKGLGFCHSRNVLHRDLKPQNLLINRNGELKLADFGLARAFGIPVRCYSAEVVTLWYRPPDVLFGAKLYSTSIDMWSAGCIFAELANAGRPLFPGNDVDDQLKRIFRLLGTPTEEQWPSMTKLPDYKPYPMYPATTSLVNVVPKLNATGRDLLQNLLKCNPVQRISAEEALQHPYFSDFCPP
T5 sequence (Q15078 whole entry partner): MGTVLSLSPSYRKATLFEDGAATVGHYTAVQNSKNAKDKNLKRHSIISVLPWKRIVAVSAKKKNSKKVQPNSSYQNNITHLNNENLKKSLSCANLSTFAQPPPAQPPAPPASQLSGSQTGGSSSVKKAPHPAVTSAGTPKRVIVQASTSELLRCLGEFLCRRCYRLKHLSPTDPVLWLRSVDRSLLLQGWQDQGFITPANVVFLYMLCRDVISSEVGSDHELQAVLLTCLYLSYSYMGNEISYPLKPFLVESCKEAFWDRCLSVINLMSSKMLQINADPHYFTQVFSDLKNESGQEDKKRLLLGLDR
T7 sequence (P45984 whole entry, canonical isoform): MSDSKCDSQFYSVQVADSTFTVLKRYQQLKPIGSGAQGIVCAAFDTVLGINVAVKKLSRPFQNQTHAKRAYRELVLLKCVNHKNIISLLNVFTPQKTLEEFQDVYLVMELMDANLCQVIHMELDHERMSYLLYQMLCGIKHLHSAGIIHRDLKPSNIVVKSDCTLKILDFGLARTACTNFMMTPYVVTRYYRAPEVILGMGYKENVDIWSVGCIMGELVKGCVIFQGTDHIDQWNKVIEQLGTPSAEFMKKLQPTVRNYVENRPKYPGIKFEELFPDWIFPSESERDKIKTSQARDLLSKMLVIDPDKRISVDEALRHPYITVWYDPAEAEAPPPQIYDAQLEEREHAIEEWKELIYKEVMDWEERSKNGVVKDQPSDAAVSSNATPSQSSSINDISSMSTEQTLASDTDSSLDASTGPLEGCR

Fc1ccc(CNc2ncnc3ccc(F)cc23)cc1 [5aa, 6-Fluoro-N-(4-fluorobenzyl)-4-Quinazolinamine]
remaining activity at 10 µM [1, 11]: 95% | remaining activity at 10 µM [2, 11]: 98% | remaining activity at 10 µM [3, 11]: 98% | remaining activity at 10 µM [4, 11]: 97% | remaining activity at 10 µM [5, 11]: 68% | remaining activity at 10 µM [6, 11]: 73% | remaining activity at 10 µM [7, 11]: 88% | remaining activity at 10 µM [8, 11]: 126% | remaining activity at 10 µM [9, 11]: 89% | remaining activity at 10 µM [10, 11]: 93%

Fc1ccc(CCNc2ncnc3ccc(F)cc23)cc1 [5as, 6-Fluoro-N-[2-(4-Fluorophenyl)Ethyl]-4-Quinazolinamine]
remaining activity at 10 µM [1, 12]: 101% | remaining activity at 10 µM [2, 12]: 112% | remaining activity at 10 µM [3, 12]: 109% | remaining activity at 10 µM [4, 12]: 91% | remaining activity at 10 µM [5, 12]: 59% | remaining activity at 10 µM [6, 12]: 89% | remaining activity at 10 µM [7, 12]: 82% | remaining activity at 10 µM [8, 12]: 108% | remaining activity at 10 µM [9, 12]: 78% | remaining activity at 10 µM [10, 12]: 87%

Fc1ccc2ncnc(NCCc3ccc(Cl)cc3)c2c1 [5at, N-[2-(4-Chlorophenyl)Ethyl]-6-Fluoro-4-Quinazolinamine]
remaining activity at 10 µM [1, 13]: 105% | remaining activity at 10 µM [2, 13]: 81% | remaining activity at 10 µM [3, 13]: 101% | remaining activity at 10 µM [4, 13]: 93% | remaining activity at 10 µM [5, 13]: 68% | remaining activity at 10 µM [6, 13]: 86% | remaining activity at 10 µM [7, 13]: 92% | remaining activity at 10 µM [8, 13]: 111% | remaining activity at 10 µM [9, 13]: 88% | remaining activity at 10 µM [10, 13]: 79%

COc1ccc2ncnc(Nc3cccc(F)c3)c2c1 [5ay, N-(3-Fluorophenyl)-6-Methoxy-4-Quinazolinamine]
remaining activity at 10 µM [1, 14]: 101% | remaining activity at 10 µM [2, 14]: 102% | remaining activity at 10 µM [3, 14]: 88% | remaining activity at 10 µM [4, 14]: 96% | remaining activity at 10 µM [5, 14]: 63% | remaining activity at 10 µM [6, 14]: 80% | remaining activity at 10 µM [7, 14]: 53% | remaining activity at 10 µM [8, 14]: 87% | remaining activity at 10 µM [9, 14]: 82% | remaining activity at 10 µM [10, 14]: 99%
